Measurements published in patent publication US10316211B2, “Stabilizer and coating compositions thereof” (SWIMC LLC, priority 2012, dated 2019).

Tested on: MCF-7, clone WS8 cells
Assay: MCF-7 cell proliferation assay of estrogenic activity
Format: cell-based, human
Details: log10 of Relative Proliferative Effect (EC50 ratio versus 17-beta estradiol times 100); b102 calls the values expected or measured
Excerpt: The MCF-7 assay is a useful test for assessing whether a polyhydric phenol compound is appreciably non-estrogenic. The MCF-7 assay uses MCF-7, clone WS8 cells to measure whether and to what extent a substance induces cell proliferation via estrogen receptor (ER)-mediated pathways. The method is described in “Test Method Nomination: MCF-7 Cell Proliferation Assay of Estrogenic Activity” submitted for validation by CertiChem, Inc. to the National Toxicology Program Interagency Center for the Evaluation of Alternative Toxicological Methods (NICEATM) on Jan. 19, 2006 (available online at iccvam.niehs.nih.gov/methods/endocrine/endodocs/SubmDoc.pdf).
A brief summary of the method of the aforementioned MCF-7 assay is provided below. MCF-7, clone WS8 cells are maintained at 37° C. in RMPI (Roswell Park Memorial Institute medium) containing Phenol Red (e.g., GIBCO Catalog Number 11875119) and supplemented with the indicated additives for routine culture. An aliquot of cells maintained at 37° C. are grown for two days in phenol-free media containing 5% charcoal stripped fetal bovine serum in a 25 cm^2 tissue culture flask. Using a robotic dispenser such as an EPMOTION™ 5070 unit, MCF-7 cells are then seeded at 400 cells per well in 0.2 ml of hormone-free culture medium in Corning 96-well plates. The cells are adapted for 3 days in the hormone-free culture medium prior to adding the chemical to be assayed for estrogenic activity. The media containing the test chemical is replaced daily for 6 days. At the end of the 7 day exposure to the test chemical, the media is removed, the wells are washed once with 0.2 ml of HBSS (Hanks' Balanced Salt Solution), and then assayed to quantify amounts of DNA per well using a micro-plate modification of the Burton diphenylamine (DPA) assay, which is used to calculate the level of cell proliferation.
RPE is the ratio between the EC50 of the test chemical and the EC50 of the control substance 17-beta estradiol times 100, where EC50 is “effective concentration 50%” or half-maximum stimulation concentration for cell proliferation measured as total DNA in the MCF-7 assay.

| SMILES | Log RPE |
| --- | --- |
| Oc1ccccc1Cc1ccccc1O [Structure 11] | less than −4 |
| CC(C)(C)c1cc(O)c(C(C)(C)C)cc1O [Structure 12] | less than −4 |
| O=S(=O)(c1ccc(O)cc1)c1ccc(O)cc1 [Bisphenol S] | −2 |
| C[C@]12CC[C@@H]3c4ccc(O)cc4CC[C@H]3[C@@H]1CC[C@@H]2O [17β-estradiol] | 2.00 |
| Oc1ccc(Cc2ccc(O)cc2)cc1 [Bisphenol F] | −2 |

Biological target: T1, human estrogen receptor (Homo sapiens, UniProt P03372)
T1 sequence (P03372 1-595): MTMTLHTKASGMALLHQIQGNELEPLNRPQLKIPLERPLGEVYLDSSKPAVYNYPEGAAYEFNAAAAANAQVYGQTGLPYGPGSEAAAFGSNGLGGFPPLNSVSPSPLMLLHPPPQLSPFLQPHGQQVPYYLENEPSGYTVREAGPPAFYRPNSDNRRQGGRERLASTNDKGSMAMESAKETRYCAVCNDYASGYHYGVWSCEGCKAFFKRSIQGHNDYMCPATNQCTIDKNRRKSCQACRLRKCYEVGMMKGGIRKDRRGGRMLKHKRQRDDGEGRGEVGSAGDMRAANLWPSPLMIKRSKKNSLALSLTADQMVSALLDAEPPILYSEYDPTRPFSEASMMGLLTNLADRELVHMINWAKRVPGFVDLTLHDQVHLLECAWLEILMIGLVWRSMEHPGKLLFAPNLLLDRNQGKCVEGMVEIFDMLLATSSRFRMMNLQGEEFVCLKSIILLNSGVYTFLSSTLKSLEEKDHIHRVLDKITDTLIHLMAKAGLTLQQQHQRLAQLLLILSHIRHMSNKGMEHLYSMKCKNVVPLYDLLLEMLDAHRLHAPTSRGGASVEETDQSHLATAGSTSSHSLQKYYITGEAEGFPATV
Assay: suitable in vitro assay whose results correlate with the MCF-7 assay (estrogenic activity)
Details: in vitro assay correlated to MCF-7 assay through common reference compounds

| SMILES | estrogenic activity |
| --- | --- |
| Cc1cc(Cc2cc(C)cc(C(C)(C)C)c2O)c(O)c(C(C)(C)C)c1 [Structure 9] | do not exhibit appreciable estrogenic activity |
| CC(C)(C)c1cc(O)c(C(C)(C)C)cc1O [Structure 12, 2,5-di-t-butylhydroquinone] | do not exhibit appreciable estrogenic activity |
| CC(C)(C)c1cc(Cc2cc(C(C)(C)C)c(O)c(C(C)(C)C)c2)cc(C(C)(C)C)c1O [Structure 8, 4,4′-methylenebis(2,6-di-t-butylphenol)] | do not exhibit appreciable estrogenic activity |
| Cc1cc(Cc2cc(C)c(O)c(C)c2)cc(C)c1O [Structure 6, 4,4′-methylenebis(2,6-dimethylphenol)] | do not exhibit appreciable estrogenic activity |
| CCCC(c1cc(C(C)(C)C)c(O)cc1C)c1cc(C(C)(C)C)c(O)cc1C [Structure 7, 4,4′-butylidenebis(2-t-butyl-5-methylphenol)] | do not exhibit appreciable estrogenic activity |
